pIC50: −log10 of the molar value.
Legend:
[1] = in vitro; details: PAMPA
Description: Permeability of the compound by PAMPA

[2] = molecular target: Cholinesterase (Equus caballus, UniProt P81908)
Description: Inhibition of equine serum BChE using acetylthiocholine chloride as substrate after 15 mins by Ellman's method

[3] = molecular target: Acetylcholinesterase (Electrophorus electricus, UniProt O42275)
Description: Inhibition of Electrophorus electricus AChE using acetylthiocholine chloride as substrate after 15 mins by Ellman's method

Row | Compound | Papp [1] | pIC50 [2] | pIC50 [3]
1 | O=C(CNCCNc1c2c(nc3ccccc13)CCC2)Nc1ccc2c(c1)C(=O)c1cccc3ccnc-2c13 | 4.6 ×10⁻⁶ cm/s | 6.61 | 6.29
2 | O=C(CCNCCNc1c2c(nc3ccccc13)CCC2)Nc1ccc2c(c1)C(=O)c1cccc3ccnc-2c13 | 1.9 ×10⁻⁶ cm/s | 5.75 | 6.37
3 | O=C(CCNCCCNc1c2c(nc3ccccc13)CCC2)Nc1ccc2c(c1)C(=O)c1cccc3ccnc-2c13 | 4.9 ×10⁻⁶ cm/s | 6.40 | 6.39
4 | O=C(CCNCCCCNc1c2c(nc3ccccc13)CCC2)Nc1ccc2c(c1)C(=O)c1cccc3ccnc-2c13 | 2.4 ×10⁻⁶ cm/s | 6.70 | 6.04
5 | O=C(CNCCNc1c2c(nc3ccccc13)CCCC2)Nc1ccc2c(c1)C(=O)c1cccc3ccnc-2c13 | 4.8 ×10⁻⁶ cm/s | 6.36 | 7.39
6 | O=C(CCNCCNc1c2c(nc3ccccc13)CCCC2)Nc1ccc2c(c1)C(=O)c1cccc3ccnc-2c13 | 2.6 ×10⁻⁶ cm/s | 6.96 | 8.47
7 | O=C(CCNCCCNc1c2c(nc3ccccc13)CCCC2)Nc1ccc2c(c1)C(=O)c1cccc3ccnc-2c13 | 3.3 ×10⁻⁶ cm/s | 6.70 | 7.24
8 | O=C(CCNCCCCNc1c2c(nc3ccccc13)CCCC2)Nc1ccc2c(c1)C(=O)c1cccc3ccnc-2c13 | 2.1 ×10⁻⁶ cm/s | 6.54 | 6.74
9 | O=C(CNCCNc1c2c(nc3ccccc13)CCCCC2)Nc1ccc2c(c1)C(=O)c1cccc3ccnc-2c13 | 4 ×10⁻⁶ cm/s | 6.68 | 7.21
10 | O=C(CCNCCNc1c2c(nc3ccccc13)CCCCC2)Nc1ccc2c(c1)C(=O)c1cccc3ccnc-2c13 | 7.9 ×10⁻⁶ cm/s | 7.19 | 7.29
11 | O=C(CCNCCCNc1c2c(nc3ccccc13)CCCCC2)Nc1ccc2c(c1)C(=O)c1cccc3ccnc-2c13 | 8.9 ×10⁻⁶ cm/s | 7.68 | 6.59
12 | O=C(CCNCCCCNc1c2c(nc3ccccc13)CCCCC2)Nc1ccc2c(c1)C(=O)c1cccc3ccnc-2c13 | 1.1 ×10⁻⁶ cm/s | 6.82 | 6.13
13 | Nc1ccc2c(c1)C(=O)c1cccc3ccnc-2c13 | – | < 4.00 | < 4.00

From ChEMBL document CHEMBL1828584, “Hybrids of oxoisoaporphine-tacrine congeners: novel acetylcholinesterase and acetylcholinesterase-induced β-amyloid aggregation inhibitors” (Eur J Med Chem, 2011)
